Laboratory results: patent US20070270403A1 (priority 2003, published 2007)
Like-named read-outs stand apart in the source and are kept apart here.

Assays:
5-HT2A receptors = 5-HT2A receptors (Homo sapiens, UniProt P28223); conditions: cited from earlier work
DA release in NAcc [1] = assay: In vivo microvoltammetry, DA release in NAcc (clozapine studies); set-up: species or system Sprague-Dawley Rattus Norvegicus; conditions: ketanserin 3 mg/kg s.c. substituted for clozapine
Description: (§1) There is an increasing awareness that a psychosis, similar to that of schizophrenic psychosis, can be derived from cocaine addiction. […] Release mechanisms for monoamines, were determined by using a depolarization blocker, gamma-butyrolactone (γBL). […] Acute and Subacute studies were performed for each treatment group.
(§2) The stereotaxic equipment was purchased from David Kopf Instruments, Tujunga, Calif. A Ag/AgCl reference electrode was placed in contact with dura, 7 mm anteriorally and contralaterally to the indicator microelectrode. A stainless steel auxiliary microelectrode was placed in contact with dura. BRODERICK PROBE® microelectrodes were manufactured on site.
(§3) In vivo microvoltammetric studies on conscious Sprague-Dawley laboratory rats were begun nine to fifteen days after the aseptic surgical operations were performed. On each experimental day, the animal was placed in a Plexiglas-copper faradaic chamber. The three-microelectrode assembly, enclosed within the animal's prosthetic acrylic cap, was connected to a CV37 detector by means of a mercury commutator (Br. Res. Instr., Princeton, N.J.), a flexible cable, and a mating connector (BJM Electronics, Staten Island, N.Y.). The CV37 detector was electrically connected to a Minigard surge suppresser (Jefferson Electric, Magnetek, N.Y.) which was then connected to an electrical ground in isolation. […] Each animal was used as its own control. Changes in synaptic concentrations of DA and 5-HT are presented as percent change (% of control) in order to minimize normal between-animal variations. […] In vivo microvoltammetric scans were recorded in sec and repeated every five min for a period of 2 hrs before each treatment and a period of two hrs after each treatment.
(§4) Potentials were applied with a CV37 detector (BAS, West Lafayette, Ind.). Potentials were applied from −0.2V to +0.4V with respect to a Ag/AgCl (1M NaCl) electrode, at a scan rate of 10 mV/sec at time constants of 5 and 1 tau. One scan was completed in 60 sec. Non-faradaic charging current was eliminated in the first 25 sec.
(§5) Calibration curves were determined experimentally, in vitro, in a freshly prepared deoxygenated physiological saline-phosphate buffer solution (0.01 M, pH=7.4). We use ultra pure Nitrogen (N2) (T. W. Smith Corp., Bklyn, N.Y.) to deoxygenate the buffer solution. […] Calibration studies were also performed in freshly prepared deoxygenated buffer solutions containing phosphotidylethanolamine (PEA), combined with bovine serum albumin (BSA) (Sigma Aldrich, St. Louis, Mo.), a solution which closely mimics brain constituents. […] Detection limits for basal synaptic concentrations of DA and 5-HT in NAcc were 12 nM and 2 nM respectively.

DA2 receptors = DA2 receptors (Homo sapiens, UniProt P14416); conditions: ketanserin: DA receptors; cited from earlier work
Chain of DA2 receptors (P14416 whole entry): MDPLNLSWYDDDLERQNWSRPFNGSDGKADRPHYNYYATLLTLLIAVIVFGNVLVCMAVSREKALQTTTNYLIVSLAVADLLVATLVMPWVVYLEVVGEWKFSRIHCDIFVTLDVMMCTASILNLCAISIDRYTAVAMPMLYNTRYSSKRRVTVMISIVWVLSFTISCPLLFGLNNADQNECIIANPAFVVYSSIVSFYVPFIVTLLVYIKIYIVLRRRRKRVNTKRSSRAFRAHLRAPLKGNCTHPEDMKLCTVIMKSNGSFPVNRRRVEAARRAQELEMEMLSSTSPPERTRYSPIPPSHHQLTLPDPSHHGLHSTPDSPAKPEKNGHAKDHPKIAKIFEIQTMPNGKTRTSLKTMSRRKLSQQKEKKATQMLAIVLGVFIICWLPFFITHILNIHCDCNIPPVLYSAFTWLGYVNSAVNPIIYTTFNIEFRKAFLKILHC

[2] = test system: Sprague-Dawley laboratory rats; assay: Locomotor activity (ambulations) by infrared photobeams (clozapine studies); type: in vivo, Sprague-Dawley Rattus Norvegicus; conditions: ketanserin 3 mg/kg s.c. substituted for clozapine
Text: Locomotor activity (ambulation) was monitored with infrared photobeams at the same time as DA and 5-HT release in NAcc was detected with BRODERICK PROBES® in conjunction with In Vivo Microvoltammetry. The chamber was faradaic, covered with copper to refract possible electrical artifacts (dimensions: 24 in (width) by 18 in (depth) by 23.5 in (height)). A 16 by 16 array of these infrared photobeams, were held in place by an aluminum frame which was situated ¾ in above the Plexiglas floor of the chamber to detect locomotor activity. Photobeams were sampled by a Pentium computer to define the x-y position of the animal within a 1.5 in resolution every 100 msec. When an x-y position was calculated, it was used to define the frequency of locomotor activity in counts. The locomotor activity system is a modified version of an Activity Pattern Monitor (APM) (San Diego Instruments, San Diego, Calif.). Behavioral data is presented in absolute frequency, i.e., number of counts recorded.
The first hr pre-drug allowed exploratory behavior. Exploratory behavior is defined as open-field behavior of ambulations (forward locomotion) wherein animals respond to the stimuli of a novel environment with high frequency of behavioral counts. The second hr pre-drug allowed the animal to become habituated before treatment.
In the Acute studies, each drug was administered at the end of the habituation period. Baseline (control) values were taken every five min for the last thirty min of the habituation period at which time drug injection(s) took place. Electrochemical recordings for DA and 5-HT release in NAcc, were continued for two hrs; at the same time, locomotor behavior continued to be monitored and recorded with infrared photobeams. At the end of the 2 hr drug(s) study, animals were then placed back in their home cages.
In the Subacute studies, which took place twenty-four hrs later, the animals were again placed in the faradaic behavioral chamber and no further drug was administered. Recordings of separate electrochemical signals for DA and 5-HT release in NAcc, were taken for one hr; at the same time, locomotor behavior was monitored and recorded with infrared photobeams.
(§6) Neurochemical and behavioral data, derived from the last thirty minutes of the habituation period, provided the baseline data. […] Where appropriate, data points in the time course were subjected to 95% Confidence Limits (C.L.).

5-HT release in NAcc [3] = assay: In vivo microvoltammetry, 5-HT release in NAcc (clozapine studies); set-up: species or system Sprague-Dawley Rattus Norvegicus; conditions: ketanserin 3 mg/kg s.c. substituted for clozapine
Description: as §1, §2, §3, §4, §5

DA2 receptor = target: T1, DA2 receptor (Rattus norvegicus, UniProt P61169); conditions: cited from earlier work
T1 construct: host or cells: brain (nucleus accumbens) of dosed animals
T1 sequence (P61169 whole entry): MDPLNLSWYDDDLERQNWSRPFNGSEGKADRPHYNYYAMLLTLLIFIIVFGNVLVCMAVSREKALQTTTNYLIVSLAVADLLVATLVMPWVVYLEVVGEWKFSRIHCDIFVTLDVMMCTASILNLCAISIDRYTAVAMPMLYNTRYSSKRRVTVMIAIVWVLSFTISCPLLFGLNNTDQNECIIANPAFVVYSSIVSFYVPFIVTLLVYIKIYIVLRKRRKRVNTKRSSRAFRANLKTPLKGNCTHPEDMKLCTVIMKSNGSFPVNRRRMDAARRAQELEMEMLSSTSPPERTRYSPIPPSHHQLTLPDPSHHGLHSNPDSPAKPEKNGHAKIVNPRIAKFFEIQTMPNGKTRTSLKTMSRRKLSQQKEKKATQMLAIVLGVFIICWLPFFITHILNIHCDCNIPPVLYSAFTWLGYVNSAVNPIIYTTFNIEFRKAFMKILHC

[4] = test system: Sprague-Dawley laboratory rats; assay: Stereotypy (fine movements of sniffing and grooming) by infrared photobeams (risperidone studies); type: in vivo, Sprague-Dawley Rattus Norvegicus
Description: (§7) Behaviors were monitored with infrared photobeams which surrounded the faradaic chamber. Open-field behaviors of locomotion (ambulations) and stereotypy (fine movements of sniffing and grooming) were recorded in sec and repeated every five min for a period of 2 hrs before each treatment and a period of 2 hrs after each treatment. Open-field behaviors were monitored simultaneously with in vivo microvoltammetric recordings of monoamines.
(§8) The first hr pre-drug, allowed exploratory behavior. Exploratory behavior is defined as open-field behavior of ambulations (forward locomotion) and stereotypy (fine movements of sniffing and grooming), wherein animals respond to the stimuli of a novel environment with a high frequency of behavioral counts. The second hr pre-drug allowed the animal to become habituated before treatment. […] In the acute studies, each drug was administered […]. For the subacute studies, twenty four hrs later, the animals were again placed in the faradaic behavioral chamber and no further drug was administered. Each animal was monitored for possible recovery, withdrawal or after-effects. of each treatment WHILE open-field behaviors of locomotions and stereotypy were monitored with computerized infrared photocell beams which surround the faradaic chamber.
(§9) The faradaic chamber was made of plexiglas and covered with copper wire to refract possible electrical artifacts (dimensions: 24 inch (width) by 18 inch (depth) by 23.5 inch (height)). A 16 by 16 array of infrared photobeams, held in place by an aluminum frame, was situated ¾ inch above the Plexiglas floor of the chamber to detect locomotor and stereotypic movements. Photobeams were sampled by a Pentium computer to define the x-y position of the animal within a 1.5 inch resolution every 100 msec. When an x-y position was calculated, it was used to define a particular behavioral parameter. This system is a modified version of an Activity Pattern Monitor (APM) (San Diego Instruments, San Diego, Calif.). Behavioral data is presented in terms of Frequency of Events.
as §6

[5] = test system: Sprague-Dawley laboratory rats; assay: Locomotion (ambulations) by infrared photobeams (risperidone studies); type: in vivo, Sprague-Dawley Rattus Norvegicus
Description: as §7, §8, §9, §6

[6] = test system: 5-hydroxyindoleacetic acid (5-HIAA) in NAcc; conditions: risperidone 0.2 mg/kg s.c. and 2.0 mg/kg s.c., time-dependent; cited from earlier work
DA release in NAcc [7] = assay: In vivo microvoltammetry, DA release in NAcc (risperidone studies); set-up: species or system Sprague-Dawley Rattus Norvegicus
Description: (§10) In vivo microvoltammetry was used to detect dopamine (DA) and serotonin (5-HT) release from Nucleus Accumbens (NAcc) of freely moving, male, Sprague Dawley laboratory rats, while animals' locomotor (forward ambulations) and stereotypic behavior (fine movements of sniffing and grooming) were monitored at the same time with infrared photobeams. Monoamine release mechanisms were determined by using a depolarization blocker, gamma-butyrolactone (γBL). Miniature carbon sensors, BRODERICK PROBE® Lauric Acid Microelectrodes, smaller than a human hair, were used in conjunction with a semidifferential electrochemical circuit, to detect release of each monoamine in separate signals and within seconds. […] The hypothesis for the present studies is derived from a growing body of evidence that cocaine-induced psychosis and schizophrenic psychosis share similar neurochemical and behavioral manifestations.
(§11) Animals were purchased from Charles River Laboratories, Kingston, N.Y. and were housed in our animal care facilities for two weeks before surgery was performed. The Animal Care Facility operates under the auspices of the CUNY, City College Institutional Animal Care and Use Committee (IACUC) in compliance with National Institute of Health (NIH) guidelines. The weight range for the animals, at the time of the studies, was 350-475 g. Animals were group housed before surgery, individually housed after surgery and fed Purina Rat Chow and water ad libitum. A twelve hr dark-light cycle was maintained both in the housing of the animals and throughout the experimental studies. […] A Ag/AgCl reference electrode was placed in contact with dura, 7 mm anteriorally and contralaterally to the indicator microelectrode. A stainless steel auxiliary microelectrode, was placed in contact with dura.
In vivo microvoltammetric studies on conscious Sprague-Dawley laboratory rats were begun nine to fifteen days after the aseptic surgical operations were performed. On each experimental day, animals were placed in a Plexiglas-copper faradaic chamber. The three-microelectrode assembly, enclosed within the animal's prosthetic acrylic cap, was connected to a CV37 detector by means of a mercury commutator (Br. Res. Instr., Princeton, N.J.), a flexible cable, and a mating connector (BJM Electronics, Staten Island, N.Y.). […] In vivo microvoltammetric scans were recorded in sec and repeated every five min for a period of 2 hrs before each treatment and a period of two hrs after each treatment.
The first hr pre-drug, allowed exploratory behavior. […] Each animal was monitored for possible recovery, withdrawal or after-effects. of each treatment WHILE open-field behaviors of locomotions and stereotypy were monitored with computerized infrared photocell beams which surround the faradaic chamber.

5-HT release in NAcc [8] = assay: In vivo microvoltammetry, 5-HT release in NAcc (risperidone studies); set-up: species or system Sprague-Dawley Rattus Norvegicus
Description: as §10, §11
In vivo microvoltammetric studies on conscious Sprague-Dawley laboratory rats were begun nine to fifteen days after the aseptic surgical operations were performed. On each experimental day, animals were placed in a Plexiglas-copper faradaic chamber. The three-microelectrode assembly, enclosed within the animal's prosthetic acrylic cap, was connected to a CV37 detector by means of a mercury commutator (Br. Res. Instr., Princeton, N.J.), a flexible cable, and a mating connector (BJM Electronics, Staten Island, N.Y.). The CV37 detector was electrically connected to a Minigard surge suppresser (Jefferson Electric, Magnetek, N.Y.) which was then connected to an electrical ground in isolation. […] Each animal was used as its own control. In vivo microvoltammetric scans were recorded in sec and repeated every five min for a period of 2 hrs before each treatment and a period of two hrs after each treatment.
as §8

[9] = humans, cited from earlier work
[10] = 24 hr after risperidone 2 mg/kg s.c.
[11] = 24 hr after single dose, no further drug
[12] = risperidone 2 mg/kg s.c. + cocaine 10 mg/kg i.p., entire 2 hr period
[13] = risperidone 2 mg/kg s.c., cocaine 10 mg/kg i.p. or both, 2 hr
[14] = risperidone 2 mg/kg s.c. + cocaine 10 mg/kg i.p., versus cocaine group

Chain of 5-HT2A receptors (P28223 whole entry): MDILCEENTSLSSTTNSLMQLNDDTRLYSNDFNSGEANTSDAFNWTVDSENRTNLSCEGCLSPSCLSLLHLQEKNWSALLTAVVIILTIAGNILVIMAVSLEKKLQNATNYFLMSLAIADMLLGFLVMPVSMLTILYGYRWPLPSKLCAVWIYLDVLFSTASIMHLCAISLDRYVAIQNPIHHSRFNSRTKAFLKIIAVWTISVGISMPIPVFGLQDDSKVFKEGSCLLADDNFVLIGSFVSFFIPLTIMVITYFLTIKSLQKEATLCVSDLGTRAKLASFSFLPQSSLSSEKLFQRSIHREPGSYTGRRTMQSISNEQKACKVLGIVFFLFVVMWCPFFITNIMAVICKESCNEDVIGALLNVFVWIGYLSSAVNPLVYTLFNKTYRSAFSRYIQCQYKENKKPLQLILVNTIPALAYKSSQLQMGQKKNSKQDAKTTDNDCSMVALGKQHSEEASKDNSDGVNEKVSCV

Question: For `O=C(c1ccc(F)cc1)C1CCN(CCn2c(=O)[nH]c3ccccc3c2=O)CC1` [ketanserin], which “Affinity for 5-HT2A receptors” value (5-HT2A receptors) is on record?
Answer: high affinity

Question: What about the “Blockade of cocaine-induced DA release, Acute, compared with clozapine” value (DA release in NAcc [1]) of the same compound?
Answer: weaker than that of clozapine

Question: And the “Affinity for DA2 receptors” value (DA2 receptors)?
Answer: does not bind

Question: What about the “Blockade of cocaine-induced psychomotor stimulant behavior, Acute, compared with clozapine” value [2] of the same compound?
Answer: weaker than that of clozapine

Question: What about the “Blockade of cocaine-induced 5-HT release, Acute, compared with clozapine” value (5-HT release in NAcc [3]) of the same compound?
Answer: weaker than that of clozapine

Question: Which results are given for `Cc1nc2n(c(=O)c1CCN1CCC(c3noc4cc(F)ccc34)CC1)CCCC2` [Risperidone, risperidone]?
Answer: ED50 of DA2 receptor occupancy (DA2 receptor; NAcc, [3H] spiperone labeling studies): 1.0 mg/kg; DA2 receptor occupancy (DA2 receptor; high dose risperidone): 70%; Stereotypy maximum frequency, Day 2 (Subacute) [4, 10]: about 50 counts; Stereotypy Day 2 versus Day 1 baseline, Subacute [4, 11]: increased stereotypy to a statistically significant degree; Stereotypy maximum frequency with drug treatment, Day 1 ([4]; risperidone 2 mg/kg s.c.): 12 counts; Effect on cocaine-induced stereotypic activity, Acute [4, 12]: blocked; Stereotypy versus baseline (habituation), Day 1 Acute [4, 13]: did not affect; Affinity for DA2 receptors (DA2 receptors): high affinity; Locomotor activity frequency, Day 2 (Subacute) [5, 10]: about 200 counts; Locomotion Day 2 versus Day 1 baseline, Subacute [5, 11]: did not affect locomotion to a statistically significant degree; Locomotor activity frequency with drug treatment, Day1 ([5]; risperidone 2 mg/kg s.c.): 50 counts; Effect on cocaine-induced locomotor (psychostimulant) activity, Acute [5, 12]: blocked; Locomotor activity (ambulations) versus baseline (habituation), Day 1 Acute [5, 13]: did not affect; Increase in 5-HIAA concentrations above baseline (up to) [6]: up to 20%; DA release in NAcc Day 2 versus Day 1 baseline, Subacute (DA release in NAcc [7]; 24 hr after single dose (risperidone 2 mg/kg s.c., cocaine 10 mg/kg i.p. or both), no further drug): returned to baseline; DA release in NAcc versus baseline (habituation), Day 1 Acute (DA release in NAcc [7]; risperidone 2 mg/kg s.c. (N=5) or cocaine 10 mg/kg i.p. (N=4), 2 hr): significantly increased; Effect on cocaine-induced DA release, Acute, first hr (DA release in NAcc [7]; [14]): significant blockade; Effect on cocaine-induced DA release, Acute, second hr (DA release in NAcc [7]; [14]): did not completely block; 5-HT release in NAcc Day 2 versus Day 1 baseline, Subacute (5-HT release in NAcc [8]; 24 hr after single dose, no further drug, 1 hr, cocaine: 15, 20, 50, 55 min time points): significantly increased; Increase in 5-HT release in NAcc during the time course (up to) (5-HT release in NAcc [8]; Acute, risperidone 2 mg/kg s.c.): about 60%; Further increase in 5-HT release on Day 2 compared to drug effect on Day 1 (approximate average) (5-HT release in NAcc [8]; Subacute, risperidone 2 mg/kg s.c. on Day 1): ~25%; Effect on cocaine-induced 5-HT release, Acute (5-HT release in NAcc [8]; [12]): blocked; 5-HT release in NAcc versus baseline (habituation), Day 1 Acute (5-HT release in NAcc [8]; [13]): significantly increased; half-life ([9]; fast metabolizers): 3 h; half-life ([9]; slow metabolizers): 20 h
